In PMC7470115, “Design, synthesis and biological evaluation of novel tetrahydrothieno [2,3-c]pyridine substitued benzoyl thiourea derivatives as PAK1 inhibitors in triple negative breast cancer” (Journal of Enzyme Inhibition and Medicinal Chemistry, 2020):

Target: PAK1 (Homo sapiens, UniProt Q13153)
Assay: PAK1 enzymatic assay (Kinase-Glo Plus / ADP-Glo luminescence)
Assay type: biochemical
Details: tested in triplicate, mean ± SD; 50 µM ATP; read-out: Kinase inhibitory activity (IC50, μM) PAK1
Protocol: These assays were carried out as described previously. All of the enzymatic reactions were conducted at 30 °C for 40 min. The 50 µl reaction mixture contains 40 mM Tris, pH 7.4, 10 mM MgCl2, 0.1 mg/ml BSA, 1 mM DTT, 50 µM ATP, 0.2 μg/ml PAK1 and 100 uM lipid substrate. The compounds were diluted in 10% DMSO and 5 µl of the dilution was added to a 50 µl reaction so that the final concentration of DMSO is 1% in all of the reactions. The assay was performed using the Kinase-Glo Plus luminescence kinase assay kit and ADP-Glo Plus luminescence kinase assay kit. It measures kinase activity by quantitating the amount of ATP remaining in solution following a kinase reaction. The luminescent signal from the assay is correlated with the amount of ATP present and is inversely correlated with the amount of kinase activity. The IC50 values were calculated using nonlinear regression with normalised dose − response fit using Prism GraphPad software.

Sequence of PAK1 (Q13153 whole entry): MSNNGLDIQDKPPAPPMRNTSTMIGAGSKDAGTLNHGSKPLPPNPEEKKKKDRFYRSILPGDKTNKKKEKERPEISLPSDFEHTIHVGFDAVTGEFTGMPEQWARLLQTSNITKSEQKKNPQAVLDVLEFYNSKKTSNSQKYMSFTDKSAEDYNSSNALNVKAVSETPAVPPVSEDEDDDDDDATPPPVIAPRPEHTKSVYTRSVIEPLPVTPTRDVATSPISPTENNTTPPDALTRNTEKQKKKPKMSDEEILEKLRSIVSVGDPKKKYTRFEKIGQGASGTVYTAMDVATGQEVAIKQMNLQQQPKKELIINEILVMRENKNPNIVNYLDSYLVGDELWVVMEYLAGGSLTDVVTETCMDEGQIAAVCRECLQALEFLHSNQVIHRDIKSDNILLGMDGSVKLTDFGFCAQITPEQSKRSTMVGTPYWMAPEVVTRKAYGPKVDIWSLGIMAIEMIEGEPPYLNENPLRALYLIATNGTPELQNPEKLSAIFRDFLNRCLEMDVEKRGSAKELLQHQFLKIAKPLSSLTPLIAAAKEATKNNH

| Structure (SMILES) | IC50 [µM] |
| --- | --- |
| CC(C)(C)OC(=O)N1CCc2c(sc(NC(=S)NC(=O)c3ccc(Cl)cc3)c2C(N)=O)C1 [Compound 5j, Tert-butyl-3-carbamoyl-2–(3-(4-chlorobenzoyl)thioureido)-4,7-dihydrothieno[2,3-c]pyridine-6(5H)-carboxylate] | 9.12 ± 0.95 |
| CC(C)(C)OC(=O)N1CCc2c(sc(NC(=S)NC(=O)c3ccccc3F)c2C(N)=O)C1 [Compound 5i, Tert-butyl-3-carbamoyl-2–(3-(2-fluorobenzoyl)thioureido)-4,7-dihydrothieno[2,3-c]pyridine-6(5H)-carboxylate] | 7.82 ± 0.71 |
| Cc1cc(C)c(C(=O)NC(=S)Nc2sc3c(c2C(N)=O)CCN(C(=O)OC(C)(C)C)C3)c(C)c1 [Compound 5e, Tert-butyl-3-carbamoyl-2–(3-(2,4,6-trimethylbenzoyl)thioureido)-4,7-dihydrothieno[2,3-c]pyridine-6(5H)-carboxylate] | 11.2 ± 1.01 |
| CC(C)(C)OC(=O)N1CCc2c(sc(NC(=S)NC(=O)c3ccc(C(F)(F)F)cc3)c2C(N)=O)C1 [Compound 5n, Tert-butyl-3-carbamoyl-2–(3-(4-(trifluoromethyl)benzoyl)thioureido)-4,7-dihydrothieno[2,3-c]pyridine-6(5H)-carboxylate] | 12.1 ± 1.35 |
| CC(C)(C)OC(=O)N1CCc2c(sc(NC(=S)NC(=O)c3ccc(Br)cc3)c2C(N)=O)C1 [Compound 5g, Tert-butyl-2–(3-(4-bromobenzoyl)thioureido)-3-carbamoyl-4,7-dihydrothieno[2,3-c]pyridine-6(5H)-carboxylate] | 9.35 ± 0.97 |
| CC(C)(C)OC(=O)N1CCc2c(sc(NC(=S)NC(=O)Cc3cccs3)c2C(N)=O)C1 [Compound 5q, Tert-butyl-3-carbamoyl-2–(3-(2-(thiophen-2-yl)acetyl)thioureido)-4,7-dihydrothieno[2,3-c]pyridine-6(5H)-carboxylate] | 15.6 ± 1.64 |
| Cc1ccccc1C(=O)NC(=S)Nc1sc2c(c1C(N)=O)CCN(C(=O)OC(C)(C)C)C2 [Compound 5c, Tert-butyl-3-carbamoyl-2–(3-(2-methylbenzoyl)thioureido)-4,7-dihydrothieno[2,3-c]pyridine-6(5H)-carboxylate] | 6.21 ± 0.69 |
| Cc1ccc(C(=O)NC(=S)Nc2sc3c(c2C(N)=O)CCN(C(=O)OC(C)(C)C)C3)cc1 [Compound 5b, Tert-butyl-3-carbamoyl-2–(3-(4-methylbenzoyl)thioureido)-4,7-dihydrothieno[2,3-c]pyridine-6(5H)-carboxylate] | 7.28 ± 0.78 |
| CC(C)(C)OC(=O)N1CCc2c(sc(NC(=S)NC(=O)c3ccccc3)c2C(N)=O)C1 [Compound 5a, Tert-butyl-2–(3-benzoylthioureido)-3-carbamoyl-4,7-dihydrothieno[2,3-c]pyridine-6(5H)-carboxylate] | 7.64 ± 0.72 |

Next, values leading:

| IC50 [µM] | Structure (SMILES) |
| --- | --- |
| 3.42 ± 0.33 | C=C(C)C(=O)N1CCc2c(sc(NC(=S)NC(=O)c3cccc(C(F)(F)F)c3)c2C(N)=O)C1 [Compound 7i, 6-methacryloyl-2–(3-(3-(trifluoromethyl)benzoyl)thioureido)-4,5,6,7-tetrahydrothieno[2,3-c]pyridine-3-carboxamide] |
| 10.2 ± 1.13 | Cc1ccccc1C(=O)N1CCc2c(sc(NC(=S)NC(=O)c3cccc(C(F)(F)F)c3)c2C(N)=O)C1 [Compound 7a, 6–(2-methylbenzoyl)-2–(3-(3-(trifluoromethyl)benzoyl)thioureido)-4,5,6,7-tetrahydrothieno[2,3-c]pyridine-3-carboxamide] |
| 3.08 ± 0.29 | CC(C)C(=O)N1CCc2c(sc(NC(=S)NC(=O)c3cccc(C(F)(F)F)c3)c2C(N)=O)C1 [Compound 7e, 6-isobutyryl-2–(3-(3-(trifluoromethyl)benzoyl)thioureido)-4,5,6,7-tetrahydrothieno[2,3-c]pyridine-3-carboxamide] |
| 5.75 ± 0.63 | NC(=O)c1c(NC(=S)NC(=O)c2cccc(C(F)(F)F)c2)sc2c1CCN(C(=O)CCCl)C2 [Compound 7g, 6–(3-chloropropanoyl)-2–(3-(3-(trifluoromethyl)benzoyl)thioureido)-4,5,6,7-tetrahydrothieno[2,3-c]pyridine-3-carboxamide] |
